{"source": "ChEMBL document CHEMBL4342436", "about": "“Artemisia: a promising plant for the treatment of cancer” (Bioorg Med Chem, 2020)", "key": {"[1]": {"system": "BGC-823", "assay": "Cytotoxicity against human BGC823 cells", "assay_type": "functional, cell-based"}, "[2]": {"system": "HCT-8", "assay": "Cytotoxicity against human HCT8 cells", "assay_type": "functional, cell-based"}, "[3]": {"system": "MDA-MB-435", "assay": "Cytotoxicity against human MDA-MB-435 cells after 72 hrs by MTT assay", "assay_type": "functional, cell-based", "conditions": "MDA-MB-435, 72 h"}, "[4]": {"system": "COLO 205", "assay": "Cytotoxicity against human COLO205 cells after 72 hrs by MTT assay", "assay_type": "functional, cell-based", "conditions": "COLO 205, 72 h"}, "[5]": {"system": "U-87 MG", "assay": "Induction of apoptosis in human U87MG cells assessed as increase in apoptotic cells at 50 uM after 24 hrs by Annexin V-FITC/propidium iodide staining based flow cytometric analysis relative to control", "assay_type": "functional, U-87MG ATCC"}, "[6]": {"system": "AGS", "assay": "Antiproliferative activity against human AGS cells assessed as reduction in cell viability after 24 hrs by CCK8 assay", "assay_type": "functional, cell-based"}, "[7]": {"system": "SNU-638", "assay": "Antiproliferative activity against human SNU638 cells assessed as reduction in cell viability after 24 hrs by CCK8 assay", "assay_type": "functional, cell-based", "conditions": "SNU-638, 24 h"}, "[8]": {"assay": "Antiproliferative activity against human SNU484 cells assessed as reduction in cell viability after 24 hrs by CCK8 assay", "assay_type": "functional, cell-based", "conditions": "SNU-484, 24 h"}, "[9]": {"system": "MKN-1", "assay": "Antiproliferative activity against human MKN1 cells assessed as reduction in cell viability after 24 hrs by CCK8 assay", "assay_type": "functional, cell-based", "conditions": "MKN-1, 24 h"}, "[10]": {"assay": "Antiproliferative activity against human SNU601 cells assessed as reduction in cell viability after 24 hrs by CCK8 assay", "assay_type": "functional, cell-based", "conditions": "SNU-601, 24 h"}, "[11]": {"system": "HL-60", "assay": "Antiproliferative activity against human HL60 cells assessed as cell viability at 150 uM by MTT assay relative to control", "assay_type": "functional", "conditions": "read-out: Activity"}, "[12]": {"system": "U-937", "assay": "Antitumour activity against human U937 cells xenografted in NOD/SCID mouse assessed as tumor growth inhibition at 50 mg/kg, ip for 20 days relative to control", "assay_type": "functional", "conditions": "U-937, ip, 480 h, read-out: TGI"}, "[13]": {"system": "PC-14", "assay": "Induction of apoptosis in human PC14 cells assessed as increase in apoptotic cells at 30 uM after 24 hrs by Annexin V-FITC/propidium iodide staining based flow cytometric analysis relative to control", "assay_type": "functional"}, "[14]": {"assay": "Cytotoxicity against human U251/CP2 cells assessed as reduction in cell viability after 24 hrs by MTT assay", "assay_type": "functional, cell-based", "conditions": "U-251, 24 h"}, "[15]": {"assay": "Cytotoxicity against human U373 cells assessed as reduction in cell viability after 24 hrs by MTT assay", "assay_type": "functional, cell-based, U-373MG ATCC", "conditions": "U373 MG"}, "[16]": {"system": "HCT-116", "assay": "Induction of apoptosis in human HCT116 cells assessed as increase in apoptotic cells at 40 uM after 24 hrs by Annexin V-FITC/propidium iodide staining based flow cytometric analysis relative to control", "assay_type": "functional"}, "[17]": {"system": "U-937", "assay": "Induction of apoptosis in human U937 cells assessed as increase in apoptotic cells at 60 uM after 24 hrs by Annexin V-FITC/propidium iodide staining based flow cytometric analysis relative to control", "assay_type": "functional"}, "[18]": {"system": "C6", "assay": "Induction of apoptosis in rat C6 cells assessed as apoptotic cells at 200 uM after 24 hr in presence of holo-transferrin by Annexin V-FITC/propidium iodide staining based flow cytometric analysis relative to control", "assay_type": "functional"}, "[19]": {"system": "CCRF-CEM", "assay": "Cytotoxicity against human CCRF-CEM cells", "assay_type": "functional", "conditions": "read-out: ED50 (the source's name)"}, "[20]": {"system": "K562", "assay": "Cytotoxicity against human K562 cells", "assay_type": "functional", "conditions": "read-out: ED50 (the source's name)"}, "[21]": {"system": "HL-60(TB)", "assay": "Cytotoxicity against human HL-60(TB) cells", "assay_type": "functional", "conditions": "read-out: ED50 (the source's name)"}, "[22]": {"system": "BGC-823", "assay": "Cytotoxicity against human BGC823 assessed as cell viability at 160 mg/l after 48 hrs by MTT assay relative to control", "assay_type": "functional", "conditions": "BGC-823, 48 h, read-out: Activity"}, "[23]": {"system": "MG-63", "assay": "Cytotoxicity against human MG63 cells assessed as cell viability after 48 hrs in presence of allicin by MTT assay relative to control", "assay_type": "functional"}, "[24]": {"system": "H22", "assay": "Antitumour activity against mouse H22 cells transplanted in mouse assessed as tumour growth inhibition at 300 mg/kg after 7 days relative to control", "assay_type": "functional", "conditions": "H22, 168 h, read-out: TGI"}, "[25]": {"system": "PANC-1", "assay": "Cytotoxicity against human PANC1 cells assessed as cell viability after 24 hrs by MTT assay relative to control", "assay_type": "functional"}, "[26]": {"system": "CFPAC-1", "assay": "Cytotoxicity against human CFPAC-1 cells assessed as cell viability after 24 hrs by MTT assay relative to control", "assay_type": "functional"}, "[27]": {"system": "MG-63", "assay": "Antitumour activity against human MG63 cells xenografted in nude BALB/c mouse assessed as tumour weight at […], ip for 5 days co-treated with allicin", "assay_type": "functional"}, "[28]": {"system": "PANC-1", "assay": "Antitumour activity against human PANC1 cells xenografted in ip dosed nude BALB/c mouse assessed as tumor weight for 18 days", "assay_type": "functional"}, "[29]": {"system": "MGC-803", "assay": "Cytotoxicity against human MGC803 assessed as cell viability at 160 mg/l after 48 hrs by MTT assay relative to control", "assay_type": "functional", "conditions": "MGC-803, 48 h, read-out: Activity"}, "[30]": {"system": "CFPAC-1", "assay": "Antitumour activity against human CFPAC-1 cells xenografted in ip dosed nude BALB/c mouse assessed as tumor weight for 18 days", "assay_type": "functional"}, "[31]": {"system": "Y79", "assay": "Induction of cell death in human Y79 cells by propidium iodide staining based flow cytometric analysis relative to control", "assay_type": "functional"}, "[32]": {"system": "Lymphocyte", "assay": "Cytotoxicity against human lymphocytes", "assay_type": "cell-based"}, "[33]": {"system": "HGC-27", "assay": "Cytotoxicity against human HGC27 assessed as cell viability at 160 mg/l after 48 hrs by MTT assay relative to control", "assay_type": "functional", "conditions": "HGC-27, 48 h, read-out: Activity"}, "[34]": {"system": "U2OS", "assay": "Cytotoxicity against human U2OS cells assessed as cell viability after 48 hrs in presence of allicin by MTT assay relative to control", "assay_type": "functional"}, "[35]": {"assay": "Cytotoxicity against human 95-D cells by SRB assay", "assay_type": "functional, cell-based"}, "[36]": {"system": "DU-145", "assay": "Growth inhibition of human DU145 cells at 200 uM after 24 hrs by WST-1 assay relative to control", "assay_type": "functional", "conditions": "DU-145, 24 h, read-out: GI"}, "[37]": {"system": "HL-60", "assay": "Antiproliferative activity against human HL60 cells assessed as reduction in cell viability after 3 days by XTT assay", "assay_type": "functional, cell-based", "conditions": "HL-60, 72 h"}, "[38]": {"assay": "Antitumour activity against mouse mammary cancer cells transplanted in Balb/c mouse assessed as tumour size at 6 mg/kg, ip for 13 days", "assay_type": "functional"}}, "data": [{"compound": "C=C(C(=O)OC)[C@@H]1CC[C@@]2(C)C(=O)C=C[C@@](C)(O)[C@@H]2[C@H]1O", "values": [{"measurement": "IC50", "setting": "[1]", "value": 6.25, "unit": "µM"}, {"measurement": "IC50", "setting": "[2]", "value": 9.13, "unit": "µM"}]}, {"compound": "C=C1C(=O)O[C@H]2[C@H]1[C@@H](O)C[C@]1(C)O[C@@]13C(=O)C=C(C)[C@H]23", "values": [{"measurement": "IC50", "setting": "[3]", "value": "7 to 10", "unit": "µM"}, {"measurement": "IC50", "setting": "[4]", "value": "7 to 10", "unit": "µM"}]}, {"compound": "COc1ccc(-c2cc(=O)c3c(O)c(OC)c(O)cc3o2)cc1OC", "note": "[EUPATILIN]", "values": [{"measurement": "Activity", "setting": "[5]", "value": 40, "unit": "%"}, {"measurement": "IC50", "setting": "[6]", "value": "50 to 100", "unit": "µM"}, {"measurement": "IC50", "setting": "[7]", "value": "50 to 100", "unit": "µM"}, {"measurement": "IC50", "setting": "[8]", "value": "50 to 100", "unit": "µM"}, {"measurement": "IC50", "setting": "[9]", "value": "50 to 100", "unit": "µM"}, {"measurement": "IC50", "setting": "[10]", "value": "50 to 100", "unit": "µM"}, {"measurement": "viability at 150 µM", "setting": "[11]", "value": 50, "unit": "%"}]}, {"compound": "C[C@H]1[C@@H](O)O[C@@H]2O[C@@]3(C)CC[C@H]4[C@H](C)CC[C@@H]1[C@@]24OO3", "note": "[ARTENIMOL]", "values": [{"measurement": "inhibition in vivo at 50 mg/kg", "setting": "[12]", "value": 70, "unit": "%"}, {"measurement": "Activity", "setting": "[13]", "value": 45, "unit": "%"}, {"measurement": "IC50", "setting": "[14]", "value": "1.17 to 23.6", "unit": "µg/mL"}, {"measurement": "IC50", "setting": "[15]", "value": "1.17 to 23.6", "unit": "µg/mL"}, {"measurement": "Activity", "setting": "[16]", "value": 48.3, "unit": "%"}, {"measurement": "Activity", "setting": "[17]", "value": 70, "unit": "%"}, {"measurement": "Activity", "setting": "[18]", "value": 66.42, "unit": "%"}]}, {"compound": "C=C1C(=O)O[C@@H]2O[C@@]3(C)CC[C@H]4[C@H](C)CC[C@@H]1[C@@]24O3", "note": "[DEOXYARTEMISITENE]", "values": [{"measurement": "EC50", "setting": "[19]", "value": 0.92, "unit": "µg/mL"}, {"measurement": "EC50", "setting": "[20]", "value": 0.94, "unit": "µg/mL"}, {"measurement": "EC50", "setting": "[21]", "value": 0.62, "unit": "µg/mL"}]}, {"compound": "C[C@H]1[C@H](OC(=O)CCC(=O)O)O[C@@H]2O[C@@]3(C)CC[C@H]4[C@H](C)CC[C@@H]1[C@@]24OO3", "note": "[ARTESUNATE]", "values": [{"measurement": "viability at 160 µg/mL", "setting": "[22]", "value": "< 20", "unit": "%"}, {"measurement": "Activity", "setting": "[23]", "value": "<25", "unit": "%"}, {"measurement": "inhibition in vivo at 300 mg/kg", "setting": "[24]", "value": 49.1, "unit": "%"}, {"measurement": "Activity", "setting": "[25]", "value": "<10", "unit": "%"}, {"measurement": "Activity", "setting": "[26]", "value": "<10", "unit": "%"}, {"measurement": "Activity", "setting": "[27]", "value": "<0.5", "unit": "g"}, {"measurement": "Activity", "setting": "[28]", "value": "<0.4", "unit": "g"}, {"measurement": "viability at 160 µg/mL", "setting": "[29]", "value": "< 20", "unit": "%"}, {"measurement": "Activity", "setting": "[30]", "value": "<0.4", "unit": "g"}, {"measurement": "Activity", "setting": "[31]", "value": 80, "unit": "%"}, {"measurement": "IC50", "setting": "[32]", "value": 80, "unit": "µM"}, {"measurement": "viability at 160 µg/mL", "setting": "[33]", "value": "< 20", "unit": "%"}, {"measurement": "Activity", "setting": "[34]", "value": "<25", "unit": "%"}]}, {"compound": "CC1(C)CCC[C@@]2(C)[C@H]1[C@H](O)C=C1COC(=O)[C@@]12O", "note": "[STROBILACTONE A]", "values": [{"measurement": "IC50", "setting": "[35]", "value": 19.8, "unit": "µM"}]}, {"compound": "COc1c(O)cc2oc(Oc3ccc(O)cc3)cc(=O)c2c1O", "values": [{"measurement": "inhibition of growth at 200 µM", "setting": "[36]", "value": 20, "unit": "%"}, {"measurement": "IC50", "setting": "[37]", "value": "1.1 to 40.7", "unit": "µg/mL"}]}, {"compound": "CCO[C@H]1O[C@@H]2O[C@@]3(C)CC[C@H]4[C@H](C)CC[C@@H]([C@H]1C)[C@@]24OO3", "note": "[ARTEMOTIL]", "values": [{"measurement": "Activity", "setting": "[38]", "value": 800, "unit": "mm3"}]}]}
